Results published in patent US9975921B2, “Crystal forms of anamorelin” (Helsinn Healthcare SA, priority 2004, dated 2018).
Values belong to the compound of their own block, whether it stands above or below them.

Legend:
Type in all cases: physicochemical
[1] = Hygroscopicity study: Dynamic Vapor Sorption analysis (DVS)
Method: (§1) The hygroscopicity of (3R)-1-(2-methylalanyl-D-tryptophyl)-3-(phenylmethyl)-3-piperidinecarboxylic acid 1,2,2-trimethylhydrazide form C produced by the method disclosed in Example 4 (monohydrate) was evaluated using Dynamic Vapor Sorption analysis (DVS) and Thermogravimetric analysis (TGA). Dynamic Vapor Sorption Analysis (DVS)
The samples were analyzed using a Hiden IGAsorp vapor sorption analyzer. Each sample was placed in a sample pan and exposed to drying at 25° C. in a dry nitrogen stream for two hours. This assured that the samples being analyzed were at a constant weight prior to the start of the analysis. The samples were then analyzed at 25.0° C. The adsorption isotherm was conducted between: 10-90% RH with a step size of 10%. The desorption isotherm was conducted between 85-0% RH with a step size 10%. After the isotherms were complete, each of the samples were heated to 125° C. until the weight loss curve reached an asymptote or for 4 hours.

[2] = Hygroscopicity study: Thermogravimetric analysis (TGA); conditions: before DVS
Method: as §1
The samples were analyzed using a Mettler 851e thermogravimetric analyzer. Samples were weighed into a crucible. The samples were heated from 30° C. to 300.0° C. ramped at 10.00° C./min with an air purge.

[3] = 12 month stability study: HPLC area % (TM-808)
Method: (§2) Crystalline (3R)-1-(2-methylalanyl-D-tryptophyl)-3-(phenylmethyl)-3-piperidinecarboxylic acid 1,2,2-trimnethylhydrazide was placed in double plastic bags, closed under a nitrogen blanket, and placed inside a small fiberboard container, the physical appearance, water content, purity and crystallinity were tested every three months for a period of 12 months under a variety of conditions.
(§3) The purity and water content of (3R)-1-(2-methylalanyl-D-tryptophyl)-3-(phenylmethyl)-3-piperidinecarboxylic acid 1,2,2-trimethylhydrazide was analyzed using HPLC and KF respectively before, during, and after the 12 month stability study.

[4] = 12 month stability study: physical description (TM-106)
Method: as §2

[5] = 12 month stability study: water content by Karl Fischer
Method: as §2, §3

[6] = 12 month stability study: DSC (USP <891>)
Method: as §2

[7] = 12 month stability study: water content by Karl Fischer; conditions: 1 month
[8] = 12 month stability study: crystallinity using optical microscopy (USP <695>)
Method: as §2

[9] = 12 month stability study: HPLC weight % (TM-808)
Method: as §2, §3

relative humidity above which the dihydrate was formed ([1]; DVS): > 35% | water contained after steady adsorption ([1]; adsorption isotherm, 25.0° C., at 35% RH): 6 % by weight | relative humidity down to which the dihydrate form was observed ([1]; desorption isotherm): 30 % RH | bound water initially contained [2]: 2.5 % by weight
Compound: CN(C)N(C)C(=O)[C@@]1(Cc2ccccc2)CCCN(C(=O)[C@@H](Cc2c[nH]c3ccccc23)NC(=O)C(C)(C)N)C1 [Form C monohydrate, (3R)-1-(2-methylalanyl-D-tryptophyl)-3-(phenylmethyl)-3-piperidinecarboxylic acid 1,2,2-trimethylhydrazide]
additional adsorption ([1]; adsorption isotherm, up to 90% RH): No other significant additional adsorption

HPLC Area % ([3]; 5° C., 1 month): 99.7% | HPLC Area % ([3]; 5° C., 3 months): 99.7% | HPLC Area % ([3]; 5° C., 6 months): 99.7% | HPLC Area % ([3]; 5° C., 9 months): 99.8% | HPLC Area % ([3]; 5° C., 12 months): 99.7% | HPLC Area % ([3]; 25° C. 60% RH, 1 month): 99.7% | HPLC Area % ([3]; 25° C. 60% RH, 3 months): 99.7% | HPLC Area % ([3]; 25° C. 60% RH, 6 months): 99.7% | HPLC Area % ([3]; 25° C. 60% RH, 9 months): 99.8% | HPLC Area % ([3]; 25° C. 60% RH, 12 months): 99.7% | HPLC Area % ([3]; 40° C. 75% RH, 1 month): 99.7% | HPLC Area % ([3]; 40° C. 75% RH, 3 months): 99.7% | HPLC Area % ([3]; 40° C. 75% RH, 6 months): 99.7% | HPLC Area % ([3]; Initial): 99.8% | purity ([3]; after 12 months): relatively unchanged | Physical Description ([4]; 5° C., 1 month): Off-white | Physical Description ([4]; 5° C., 3 months): Off-white | Physical Description ([4]; 5° C., 6 months): Off-white | Physical Description ([4]; 5° C., 9 months): White | Physical Description ([4]; 5° C., 12 months): Off-white | Physical Description ([4]; 25° C. 60% RH, 1 month): Off-white | Physical Description ([4]; 25° C. 60% RH, 3 months): Off-white | Physical Description ([4]; 25° C. 60% RH, 6 months): Off-white | Physical Description ([4]; 25° C. 60% RH, 9 months): Off-white | Physical Description ([4]; 25° C. 60% RH, 12 months): Off-white | Physical Description ([4]; 40° C. 60% RH, 1 month): Off-white | Physical Description ([4]; 40° C. 60% RH, 3 months): Off-white | Physical Description ([4]; 40° C. 60% RH, 6 months): Off-white | Physical Description ([4]; Initial): Off-white | Water content by Karl Fisher ([5]; 5° C., 3 months): 6.0% | Water content by Karl Fisher ([5]; 5° C., 6 months): 5.8% | Water content by Karl Fisher ([5]; 5° C., 9 months): 5.6% | Water content by Karl Fisher ([5]; 5° C., 12 months): 6.1% | Water content by Karl Fisher ([5]; 25° C. 60% RH, 3 months): 6.0% | Water content by Karl Fisher ([5]; 25° C. 60% RH, 6 months): 5.9% | Water content by Karl Fisher ([5]; 25° C. 60% RH, 9 months): 5.7% | Water content by Karl Fisher ([5]; 25° C. 60% RH, 12 months): 5.8% | Water content by Karl Fisher ([5]; 40° C. 75% RH, 3 months): 6.1% | Water content by Karl Fisher ([5]; 40° C. 75% RH, 6 months): 5.9% | water content (Karl Fischer Analysis) ([5]; after 12 months): approximately 6% | DSC Onset ([6]; 5° C., 3 months): 112.1 °C | DSC Peak ([6]; 5° C., 3 months): 117.1 °C | DSC Onset ([6]; 5° C., 6 months): 112.3 °C | DSC Peak ([6]; 5° C., 6 months): 116.9 °C | DSC Onset ([6]; 25° C. 60% RH, 3 months): 112.6 °C | DSC Peak ([6]; 25° C. 60% RH, 3 months): 117.7 °C | DSC Onset ([6]; 25° C. 60% RH, 6 months): 112.5 °C | DSC Peak ([6]; 25° C. 60% RH, 6 months): 117 °C | DSC Onset ([6]; 40° C. 75% RH, 3 months): 112.2 °C | DSC Peak ([6]; 40° C. 75% RH, 3 months): 117.5 °C | DSC Onset ([6]; 40° C. 75% RH, 6 months): 125.5 °C | DSC Peak ([6]; 40° C. 75% RH, 6 months): 117.8 °C | DSC Onset ([6]; Initial): 108.2 °C | DSC Peak ([6]; Initial): 112.7 °C | Water content by Karl Fisher ([7]; 5° C.): 5.3% | Water content by Karl Fisher ([7]; 25° C. 60% RH): 5.8% | Water content by Karl Fisher ([7]; 40° C. 75% RH): 6.1% | Crystallinity using Optical Microscopy ([8]; 5° C., 1 month): Crystal- | Crystallinity using Optical Microscopy ([8]; 5° C., 3 months): Crystal- | Crystallinity using Optical Microscopy ([8]; 5° C., 6 months): Crystal- | Crystallinity using Optical Microscopy ([8]; 5° C., 9 months): Crystal- | Crystallinity using Optical Microscopy ([8]; 5° C., 12 months): Crystal- | Crystallinity using Optical Microscopy ([8]; 25° C. 60% RH, 1 month): Crystal- | Crystallinity using Optical Microscopy ([8]; 25° C. 60% RH, 3 months): Crystal- | Crystallinity using Optical Microscopy ([8]; 25° C. 60% RH, 6 months): Crystal- | Crystallinity using Optical Microscopy ([8]; 25° C. 60% RH, 9 months): Crystal- | Crystallinity using Optical Microscopy ([8]; 25° C. 60% RH, 12 months): Crystal- | Crystallinity using Optical Microscopy ([8]; 40° C. 75% RH, 1 month): Crystal- | Crystallinity using Optical Microscopy ([8]; 40° C. 75% RH, 3 months): Crystal- | Crystallinity using Optical Microscopy ([8]; 40° C. 75% RH, 6 months): Crystal- | Crystallinity using Optical Microscopy ([8]; Initial): Crystal- | HPLC Weight % ([9]; 5° C., 1 month): 92.0% | HPLC Weight % ([9]; 5° C., 3 months): 93.2% | HPLC Weight % ([9]; 5° C., 6 months): 93.9% | HPLC Weight % ([9]; 5° C., 9 months): 94.5% | HPLC Weight % ([9]; 5° C., 12 months): 94.3% | HPLC Weight % ([9]; 25° C. 60% RH, 1 month): 92.1% | HPLC Weight % ([9]; 25° C. 60% RH, 3 months): 93.2% | HPLC Weight % ([9]; 25° C. 60% RH, 6 months): 94.2% | HPLC Weight % ([9]; 25° C. 60% RH, 9 months): 94.6% | HPLC Weight % ([9]; 25° C. 60% RH, 12 months): 94.2% | HPLC Weight % ([9]; 40° C. 75% RH, 1 month): 91.8% | HPLC Weight % ([9]; 40° C. 75% RH, 3 months): 93.0% | HPLC Weight % ([9]; 40° C. 75% RH, 6 months): 94.1% | HPLC Weight % ([9]; Initial): 99.8%
Compound: CN(C)N(C)C(=O)[C@@]1(Cc2ccccc2)CCCN(C(=O)[C@@H](Cc2c[nH]c3ccccc23)NC(=O)C(C)(C)N)C1 [crystalline anamorelin, (3R)-1-(2-methylalanyl-D-tryptophyl)-3-(phenylmethyl)-3-piperidinecarboxylic acid 1,2,2-trimethylhydrazide]
